Non-standard residues stand in square brackets, D forms with d. Residues, ends and D or L forms follow the SMILES beside them. *: point of attachment. X1 = O=C(CCCC[C@@H]1SC[C@@H]2NC(=O)N[C@@H]21)NCCCOCCOCCOCCCN*; PEG12 = NCCOCCOCCOCCOCCOCCOCCOCCOCCOCCOCCOCCOCCC(=O)O
Key:
[1] = tested on: H2009 cells; test: Cell internalization by flow cytometry, absolute uptake (molecules per cell); format: cell-based, human; details: for Molecules Internalized Per Cell: Average
Excerpt: (§1) Optimizing MGS4 as a monomer is efficient but the optimal valency of the truncated peptide may be different than that of the full-length peptide. The peptide was synthesized as a monomer (MGS4_V8), dimer (MGS4_V9), and tetramer (MGS4_V10). To obtain quantitative data, we moved from measuring the relative fluorescence of dye-labeled peptide to the determination of the average number of dye molecules internalized per cell. […] The dimer MGS4_V9 has an EC50 7-fold lower indicating there is a synergistic effect in going from a monomer to a dimer (Fig. 2a and Table 2). However, there is only a 2-fold decrease in going from a dimer to a tetrameric peptide (MGS4_V10). We also calculated the EC50 on three other NSCLC cell lines (Table 2 and Supplementary Figure 3). […] The average number of peptides internalized per cell at saturating conditions varies, with H1993 cells internalizing the highest number of peptides at all three valencies (Table 2). This is likely due to differing levels of receptor expression on the cell type. The average molecules internalized at 50 nM in one hour follows the same trend (Fig. 2b).
(§2) Biotinylated peptide was conjugated to streptavidin-R-phycoerythrin or streptavidin-Alexa Fluor 647 (1:1 molar ratio) for 30 min. The open binding sites on streptavidin were quenched with RPMI 1640 and diluted to the indicated concentration. Tumor cells were grown to 90% confluency in a 12 well plate, then incubated with 500 µl peptide-dye conjugate at 37 °C. After 1 h, peptide was removed, and the cells were washed 3x with PBS (137 mM NaCl, 2.7 mM KCl, 10 mM Na2HPO4, 1.8 mM KH2PO4, pH 7.4), 2x with 0.1 M HCl-glycine pH2.2 in 0.9% NaCl, and 1x PBS rinse. Cells were removed by trypsinization. Flow cytometry was performed on a BD FACSCelesta, and data were analyzed on Flowing software. Cells were gated based on the forward and side scatter to include only viable cells and a minimum of 10,000 events were counted. A region containing <5% of the cells in the negative control was established, and relative peptide uptake by the mean fluorescence intensity of that population. For absolute peptide uptake per cell, a standard curve was generated using Quantum™ Alexa Fluor 647 microspheres (Bangs Laboratory, Fishers, IN). A representative linear regression showing the correlation of molecule equivalents soluble fluorophores (MESF) vs the mean fluorescence intensity (MFI) is shown in Supplemental Figure 6. Cells were gated based on the forward and side scatter to include only viable cells and a minimum of 10,000 events were counted. MFI was determined at 50% at peak height. Molecules internalized per cell were determined by the standard curve relating MESF to MFI and divided by the number dye molecules/MGS conjugate. An example is shown in supplemental Figure 7. GraphPad Prism® was used for non-linear regression curve fitting to calculate an EC50. Parameters and statistical analysis are provided (Supplementary Tables 2–6). Experiments were repeated a minimum of three times.
(§3) For all EC50 determinations, each peptide variant was tested on the indicated cell line with a minimum of 3 biological replicates and analyzed individually by flow cytometry. The standard error measurement for each concentration is indicated by error bars in the figures. For experiments in which absolute number of molecules internalized was measured at different concentrations, EC50 were determined by GraphPad Prism® using nonlinear regression curve fitting for log(agonist) vs. response–Variable slope (four parameters). For the truncation experiments, EC50 were determined using one-site-specific binding. Similarly, IC50s were calculated using GraphPad Prism® using log(agonist) vs. response–Variable slope (four parameters). A minimum of four biological replicates were performed for each variant and cell line. Data for individual experiments are included in supplementary files. Parameters and statistical analysis are provided in Supplementary Tables 2–7. […]

[2] = tested on: H1993 cells; test: as above; format: cell-based, human; details: for Molecules Internalized Per Cell: Average
Excerpt: as §1, §2, §3

[3] = tested on: H358 cells; test: as above; format: cell-based, human; details: for Molecules Internalized Per Cell: Average
Excerpt: as §1, §2, §3

[4] = tested on: normal human bronchial epithelial cell line (HBEC); test: Cell internalization by flow cytometry in normal control cells; format: cell-based; details: 50 nM, 1 h
Excerpt: Optimizing MGS4 as a monomer is efficient but the optimal valency of the truncated peptide may be different than that of the full-length peptide. The peptide was synthesized as a monomer (MGS4_V8), dimer (MGS4_V9), and tetramer (MGS4_V10). To obtain quantitative data, we moved from measuring the relative fluorescence of dye-labeled peptide to the determination of the average number of dye molecules internalized per cell. […] The dimer MGS4_V9 has an EC50 7-fold lower indicating there is a synergistic effect in going from a monomer to a dimer (Fig. 2a and Table 2). However, there is only a 2-fold decrease in going from a dimer to a tetrameric peptide (MGS4_V10). We also calculated the EC50 on three other NSCLC cell lines (Table 2 and Supplementary Figure 3). […]
Non-internalized peptide was removed, and the mean number of peptides internalized per cell was determined to calculate the EC50. […] Error bars, in black, represent standard error measurements and are below the height of the symbols in some cases. b The average number of peptide molecules per cell at 50 nM at 1 h was determined on four NSCLC cell lines and one normal human bronchial epithelial cell line (HBEC). […]
Biotinylated peptide was conjugated to streptavidin-R-phycoerythrin or streptavidin-Alexa Fluor 647 (1:1 molar ratio) for 30 min. […] Flow cytometry was performed on a BD FACSCelesta, and data were analyzed on Flowing software. […]

## CC(=O)N[C@@H](Cc1ccccc1)C(=O)N[C@@H](Cc1c[nH]cn1)C(=O)N[C@@H](C)C(=O)N[C@H](C(=O)N1CCC[C@H]1C(=O)N[C@@H](CCC(N)=O)C(=O)N[C@@H](CO)C(=O)N[C@@H](Cc1ccccc1)C(=O)N[C@@H](Cc1ccc(O)cc1)C(=O)N[C@H](C(=O)NCCOCCOCCOCCOCCOCCOCCOCCOCCOCCOCCOCCOCCC(=O)N[C@@H](CCC(=O)NCCCOCCOCCOCCCNC(=O)CCCC[C@@H]1SC[C@@H]2NC(=O)N[C@@H]21)C(N)=O)[C@@H](C)O)C(C)C [MGS4_V8] (Ac-FHAVPQSFYT[PEG12]E(X1)-NH2)
[1]; 1 nM
  Molecules Internalized Per Cell: 0
[1]; 10 nM
  Molecules Internalized Per Cell: 1006
[1]; 20 nM
  Molecules Internalized Per Cell: 3516
[1]; 30 nM
  Molecules Internalized Per Cell: 15550
[1]; 40 nM
  Molecules Internalized Per Cell: 22008
[1]; 50 nM
  Molecules Internalized Per Cell: 28764
[1]; 60 nM
  Molecules Internalized Per Cell: 30384
[1]; 80 nM
  Molecules Internalized Per Cell: 38906
[1]; H2009 Cells
  Saturation (molecules): 40,600 ± 2630 molecules
[1]; Supplementary Table 4
  HillSlope: 3.175
  LogIC50: -7.424
  Top: 40633
[2]; 0.01 nM
  Molecules Internalized Per Cell: 0
[2]; 1 nM
  Molecules Internalized Per Cell: 57
[2]; 10 nM
  Molecules Internalized Per Cell: 3584
[2]; 20 nM
  Molecules Internalized Per Cell: 36850
[2]; 30 nM
  Molecules Internalized Per Cell: 42262
[2]; 40 nM
  Molecules Internalized Per Cell: 55296
[2]; 50 nM
  Molecules Internalized Per Cell: 88510
[2]; 60 nM
  Molecules Internalized Per Cell: 76327
[2]; H1993 Cells
  Saturation (molecules): 119,000 ± 57,500 molecules
[2]; Supplementary Table 6
  HillSlope: 1.706
  LogIC50: -7.427
  Top: 118643
[3]; 0.01 nM
  Molecules Internalized Per Cell: 0
[3]; 0.1 nM
  Molecules Internalized Per Cell: 11
[3]; 1 nM
  Molecules Internalized Per Cell: 140
[3]; 5 nM
  Molecules Internalized Per Cell: 2481
[3]; 10 nM
  Molecules Internalized Per Cell: 4840
[3]; 20 nM
  Molecules Internalized Per Cell: 25103
[3]; 30 nM
  Molecules Internalized Per Cell: 36064
[3]; 40 nM
  Molecules Internalized Per Cell: 47392
[3]; 50 nM
  Molecules Internalized Per Cell: 58761
[3]; 60 nM
  Molecules Internalized Per Cell: 66918
[3]; 80 nM
  Molecules Internalized Per Cell: 68326
[3]; H358 Cells
  Saturation (molecules): 85,500 ± 39600 molecules
[3]; Supplementary Table 5
  HillSlope: 1.829
  LogIC50: -7.470
  Top: 85477
[4]
  internalization in normal cells: minimal internalization

— PMC9845330 (Communications Biology, 2023)
